Laboratory results as given in BindingDB's records for doi:10.1016/j.bmcl.2008.09.059 (Seoul National University, 2008).

Target: Isocitrate lyase (Candida albicans, UniProt Q9P8Q7)
Test: Inhibition of candida albicans isocitrate lyase

Chain of Isocitrate lyase (Q9P8Q7 whole entry): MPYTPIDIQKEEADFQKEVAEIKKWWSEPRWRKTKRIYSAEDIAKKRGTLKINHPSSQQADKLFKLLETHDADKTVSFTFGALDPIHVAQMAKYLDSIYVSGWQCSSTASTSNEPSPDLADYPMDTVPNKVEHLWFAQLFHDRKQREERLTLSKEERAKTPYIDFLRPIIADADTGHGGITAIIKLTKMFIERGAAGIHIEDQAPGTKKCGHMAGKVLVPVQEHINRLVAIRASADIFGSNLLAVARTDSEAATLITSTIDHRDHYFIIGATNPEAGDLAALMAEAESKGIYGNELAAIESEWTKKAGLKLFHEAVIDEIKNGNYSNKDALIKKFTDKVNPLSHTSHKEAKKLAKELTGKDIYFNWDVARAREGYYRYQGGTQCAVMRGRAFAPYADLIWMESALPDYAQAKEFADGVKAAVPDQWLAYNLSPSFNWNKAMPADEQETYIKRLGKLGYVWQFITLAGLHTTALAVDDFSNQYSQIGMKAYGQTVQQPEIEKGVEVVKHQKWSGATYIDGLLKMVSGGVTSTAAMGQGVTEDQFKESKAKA

IC50: 158 µM
Compound: CC1=CC[C@H]2C(C)(C)CCC[C@]2(C)[C@H]1C[C@@H](OS(=O)(=O)O)[C@H](C)CCC/C(C)=C/Cc1cc(O)ccc1O
